Values quoted from earlier work as cited in publication PMC3907537, “Evaluation of the Endothelin Receptor Antagonists Ambrisentan, Bosentan, Macitentan, and Sitaxsentan as Hepatobiliary Transporter Inhibitors and Substrates in Sandwich-Cultured Human Hepatocytes” (PLoS ONE, 2014).
Like-named read-outs stand apart in the source and are kept apart here.

What was measured:
[1] = test system: human OATP1B1; settings: cited from earlier work
[2] = cited from earlier work
[3] = test system: human Pgp; design: method as in PMID 22348175; settings: at doses up to 50 µM, Kim et al. ref 46; cited from earlier work
[4] = target: T1, BCRP (Homo sapiens, UniProt Q9UNQ0); design: method as in earlier work; settings: data previously reported, similar conditions ref 35; cited from earlier work
T1 construct: host or cells: MDCKII
T1 sequence (Q9UNQ0 1-655): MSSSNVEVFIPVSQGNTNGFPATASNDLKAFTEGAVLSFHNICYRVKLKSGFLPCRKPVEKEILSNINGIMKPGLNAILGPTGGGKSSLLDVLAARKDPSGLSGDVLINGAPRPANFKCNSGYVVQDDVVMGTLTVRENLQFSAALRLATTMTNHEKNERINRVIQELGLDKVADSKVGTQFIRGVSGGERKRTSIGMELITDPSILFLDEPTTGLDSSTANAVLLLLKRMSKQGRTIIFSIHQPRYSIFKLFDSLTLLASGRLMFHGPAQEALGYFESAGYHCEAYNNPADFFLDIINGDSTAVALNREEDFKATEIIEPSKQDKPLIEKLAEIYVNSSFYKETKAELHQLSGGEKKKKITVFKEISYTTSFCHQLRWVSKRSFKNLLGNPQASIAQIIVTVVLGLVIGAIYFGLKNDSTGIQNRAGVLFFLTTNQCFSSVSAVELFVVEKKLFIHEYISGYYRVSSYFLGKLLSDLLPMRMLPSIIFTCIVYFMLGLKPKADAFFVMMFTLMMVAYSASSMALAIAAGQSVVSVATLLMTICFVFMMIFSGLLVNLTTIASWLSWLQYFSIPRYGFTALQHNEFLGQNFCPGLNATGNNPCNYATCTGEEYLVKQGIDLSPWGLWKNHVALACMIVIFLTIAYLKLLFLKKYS

| SMILES | IC50 ([1]; Bruderer et al. ref 36, read-out: OATP1B1 IC50) | IC50 ([1]; read-out: human OATP1B1 IC50) | elevations >8X ULN on macitentan compared to placebo ([2]; SERAPHIN ref 19) | incidence of serum aminotransferase elevations >3X ULN ([2]; SERAPHIN, PAH patients, up to 103.9 weeks, placebo 4.5% ref 17, 19) | incidence of aminotransferase elevations >8X ULN ([2]; SERAPHIN, placebo 0.4% ref 19) | inhibition of human Pgp [3] | IC50 [4] |
| --- | --- | --- | --- | --- | --- | --- | --- |
| CCCNS(=O)(=O)Nc1ncnc(OCCOc2ncc(Br)cn2)c1-c1ccc(Br)cc1 [macitentan] | 6.3 µM | 4.4 µM | ~5 fold | 3.4% | 2.1% | no inhibition |  |
| Cc1cc2c(cc1CC(=O)c1sccc1S(=O)(=O)Nc1onc(C)c1Cl)OCO2 [sitaxsentan] |  |  |  |  |  |  | > 100 µM |
